Like-named read-outs stand apart in the source and are kept apart here. Each block holds one molecule with its values, some of them ahead of it.
Assays:
MMP-2 = molecular target: T1, MMP-2 (Homo sapiens, UniProt P08253); test: MMP-2 inhibition assay (fluorogenic peptide substrate); format: biochemical; settings: for IC50: n.d: not detected; for remaining activity (%): MMP-2
T1 construct: purchased Sino Biological 10082-HNAH
T1 sequence (P08253 110-660): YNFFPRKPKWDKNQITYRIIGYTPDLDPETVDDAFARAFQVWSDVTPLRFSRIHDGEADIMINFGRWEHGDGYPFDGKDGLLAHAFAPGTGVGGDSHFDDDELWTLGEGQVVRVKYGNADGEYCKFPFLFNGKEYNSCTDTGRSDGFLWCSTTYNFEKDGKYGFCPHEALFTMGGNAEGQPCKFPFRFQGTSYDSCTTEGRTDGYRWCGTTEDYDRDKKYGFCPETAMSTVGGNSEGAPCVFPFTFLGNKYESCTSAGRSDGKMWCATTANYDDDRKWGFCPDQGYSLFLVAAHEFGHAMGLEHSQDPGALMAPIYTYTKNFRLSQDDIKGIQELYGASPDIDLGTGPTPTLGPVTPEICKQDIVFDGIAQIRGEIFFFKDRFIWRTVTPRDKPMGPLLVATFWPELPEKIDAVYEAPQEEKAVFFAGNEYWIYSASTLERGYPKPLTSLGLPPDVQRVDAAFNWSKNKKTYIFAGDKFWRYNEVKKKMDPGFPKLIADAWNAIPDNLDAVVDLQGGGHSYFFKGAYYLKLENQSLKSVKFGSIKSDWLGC
How it was run: (§1)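 Human proMMP-2 and proMMP-9 were activated with 1 mM APMA for 2 h at 37 °C, then used at 6.5 nM (MMP-2) or 10 nM (MMP-9) final in Tris/NaCl/CaCl2/Brij 35 buffer, pH 7.5. After 30 min preincubation with compound at RT, 25 μM FRET peptide substrate was added and fluorescence (ex 280/em 360 nm) followed for 30 min. IC50 came from logistic fits of Vmax.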

MMP-9 = molecular target: T2, MMP-9 (Homo sapiens, UniProt P14780); test: MMP-9 inhibition assay (fluorogenic peptide substrate); format: biochemical; set-up: remaining enzyme activity (% of control): scale not given here; settings: for IC50: n.d: not detected; for remaining enzyme activity (% of control): MMP-9
T2 construct: purchased Sino Biological 10327-HNAH
How it was run: as §1

[1] = mean ± SE, Fig. 5d unit inferred, µM, read-out: IC50
[2] = mean ± SE, Fig. 5e prints no unit, µM, read-out: IC50
[3] = Figure 5d, fragment combination joined by linker, read-out: MMP2 IC50
[4] = Figure 5d, fragment combination joined by linker, read-out: MMP9 IC50

T2 sequence (P14780 107-707 limits assumed): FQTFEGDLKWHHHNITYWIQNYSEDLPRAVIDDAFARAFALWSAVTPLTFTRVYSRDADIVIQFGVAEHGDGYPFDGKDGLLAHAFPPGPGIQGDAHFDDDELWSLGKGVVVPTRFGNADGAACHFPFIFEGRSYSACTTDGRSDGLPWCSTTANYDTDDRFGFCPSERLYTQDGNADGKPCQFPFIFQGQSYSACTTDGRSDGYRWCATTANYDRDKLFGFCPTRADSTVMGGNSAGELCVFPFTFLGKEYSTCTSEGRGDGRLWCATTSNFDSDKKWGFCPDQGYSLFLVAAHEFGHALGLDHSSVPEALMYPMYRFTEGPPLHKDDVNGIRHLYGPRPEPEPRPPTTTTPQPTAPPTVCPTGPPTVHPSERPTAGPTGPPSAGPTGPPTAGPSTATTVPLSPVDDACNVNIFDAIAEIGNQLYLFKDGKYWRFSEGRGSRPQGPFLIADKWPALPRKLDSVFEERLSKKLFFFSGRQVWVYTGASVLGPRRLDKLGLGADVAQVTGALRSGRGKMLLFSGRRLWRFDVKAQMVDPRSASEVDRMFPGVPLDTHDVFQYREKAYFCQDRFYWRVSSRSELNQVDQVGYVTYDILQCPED

remaining activity at 0.0168 µM (MMP-2; MMP-2, concentration 0.0168 µM, read-out: Mean (MMP-2, Supplementary fig 16)): 102% | remaining activity at 0.08 µM (MMP-2; MMP-2, concentration 0.08 µM, read-out: Mean (MMP-2, Supplementary fig 16)): 100% | remaining activity at 0.42 µM (MMP-2; MMP-2, concentration 0.42 µM, read-out: Mean (MMP-2, Supplementary fig 16)): 98.9% | remaining activity at 2.1 µM (MMP-2; MMP-2, concentration 2.10 µM, read-out: Mean (MMP-2, Supplementary fig 16)): 113% | remaining activity at 10.52 µM (MMP-2; MMP-2, concentration 10.52 µM, read-out: Mean (MMP-2, Supplementary fig 16)): 85.5% | remaining activity at 52.6 µM (MMP-2; MMP-2, concentration 52.60 µM, read-out: Mean (MMP-2, Supplementary fig 16)): 48.1% | remaining activity at 263 µM (MMP-2; MMP-2, concentration 263.00 µM, read-out: Mean (MMP-2, Supplementary fig 16)): 6.96% | remaining activity at 1315 µM (MMP-2; MMP-2, concentration 1315.00 µM, read-out: Mean (MMP-2, Supplementary fig 16)): 0% | IC50 (MMP-2; [1]): 50.3 ± 11.1 µM | remaining activity at 0.0466 µM (MMP-9; MMP-9, concentration 0.0466 µM, read-out: Mean (MMP-9, Supplementary fig 16)): 97.3% | remaining activity at 0.23 µM (MMP-9; MMP-9, concentration 0.23 µM, read-out: Mean (MMP-9, Supplementary fig 16)): 81.8% | remaining activity at 1.17 µM (MMP-9; MMP-9, concentration 1.17 µM, read-out: Mean (MMP-9, Supplementary fig 16)): 81.4% | remaining activity at 5.83 µM (MMP-9; MMP-9, concentration 5.83 µM, read-out: Mean (MMP-9, Supplementary fig 16)): 70.8% | remaining activity at 29.14 µM (MMP-9; MMP-9, concentration 29.14 µM, read-out: Mean (MMP-9, Supplementary fig 16)): 63.8% | remaining activity at 145.72 µM (MMP-9; MMP-9, concentration 145.72 µM, read-out: Mean (MMP-9, Supplementary fig 16)): 15.2% | remaining activity at 728.6 µM (MMP-9; MMP-9, concentration 728.60 µM, read-out: Mean (MMP-9, Supplementary fig 16)): 0% | IC50 (MMP-9; [2]): 45.9 ± 24.2 µM
Structure (SMILES): O=C(/C=C/CCCCNC(=O)c1cncc(O)c1)CC(=O)NCCNC(=O)Cn1cnc2c(oc3ccccc32)c1=O [182+828 Linker 12]

remaining activity at 0.011 µM (MMP-2; MMP-2, concentration 0.011 µM, read-out: Mean (MMP-2, Supplementary fig 16)): 96.4% | remaining activity at 0.0548 µM (MMP-2; MMP-2, concentration 0.0548 µM, read-out: Mean (MMP-2, Supplementary fig 16)): 104% | remaining activity at 0.27 µM (MMP-2; MMP-2, concentration 0.27 µM, read-out: Mean (MMP-2, Supplementary fig 16)): 97.6% | remaining activity at 1.37 µM (MMP-2; MMP-2, concentration 1.37 µM, read-out: Mean (MMP-2, Supplementary fig 16)): 90.8% | remaining activity at 6.86 µM (MMP-2; MMP-2, concentration 6.86 µM, read-out: Mean (MMP-2, Supplementary fig 16)): 86.3% | remaining activity at 34.28 µM (MMP-2; MMP-2, concentration 34.28 µM, read-out: Mean (MMP-2, Supplementary fig 16)): 48.6% | remaining activity at 171.4 µM (MMP-2; MMP-2, concentration 171.40 µM, read-out: Mean (MMP-2, Supplementary fig 16)): 5.35% | remaining activity at 857 µM (MMP-2; MMP-2, concentration 857.00 µM, read-out: Mean (MMP-2, Supplementary fig 16)): 0% | IC50 (MMP-2; [1]): 33.3 ± 6.4 µM | remaining activity at 0.0548 µM (MMP-9; MMP-9, concentration 0.0548 µM, read-out: Mean (MMP-9, Supplementary fig 16)): 95.4% | remaining activity at 0.27 µM (MMP-9; MMP-9, concentration 0.27 µM, read-out: Mean (MMP-9, Supplementary fig 16)): 85.7% | remaining activity at 1.37 µM (MMP-9; MMP-9, concentration 1.37 µM, read-out: Mean (MMP-9, Supplementary fig 16)): 87.6% | remaining activity at 6.86 µM (MMP-9; MMP-9, concentration 6.86 µM, read-out: Mean (MMP-9, Supplementary fig 16)): 77.5% | remaining activity at 34.28 µM (MMP-9; MMP-9, concentration 34.28 µM, read-out: Mean (MMP-9, Supplementary fig 16)): 52.4% | remaining activity at 171.4 µM (MMP-9; MMP-9, concentration 171.40 µM, read-out: Mean (MMP-9, Supplementary fig 16)): 0% | remaining activity at 857 µM (MMP-9; MMP-9, concentration 857.00 µM, read-out: Mean (MMP-9, Supplementary fig 16)): 0% | IC50 (MMP-9; [2]): 35.3 ± 15 µM
Structure (SMILES): O=C(CSCCNC(=O)c1cncc(O)c1)NCCNC(=O)Cn1cnc2c(oc3ccccc32)c1=O [182+828 Linker 24]

IC50 (MMP-2; [3]): 95.5 µM | IC50 (MMP-9; [4]): 143 µM
Structure (SMILES): O=C(Cn1cnc2c(oc3ccccc32)c1=O)NCc1c[nH]nn1 [182_787 1]

IC50 (MMP-2; [3]): 193 µM | IC50 (MMP-9; [4]): 134 µM
Structure (SMILES): O=C(CCC(=O)NCc1c[nH]nn1)NCCCCCCCCNC(=O)Cn1cnc2c(oc3ccccc32)c1=O [182_787 4]

IC50 (MMP-2; [3]): 45.9 µM | IC50 (MMP-9; [4]): 126 µM
Structure (SMILES): O=C(CSCCNC(=O)Cn1cnc2c(oc3ccccc32)c1=O)NCc1c[nH]nn1 [182_787 24]

IC50 (MMP-2; [3]): 62.3 µM | IC50 (MMP-9; [4]): 131 µM
Structure (SMILES): Cn1c(O)nc2cc(C(=O)NCCCCC=CC(=O)CC(=O)NCCNC(=O)Cn3cnc4c(oc5ccccc54)c3=O)cnc21 [182_826 12]

IC50 (MMP-2; [3]): 77.1 µM | IC50 (MMP-9; [4]): 92.1 µM
Structure (SMILES): O=C(Cn1cnc2c(oc3ccccc32)c1=O)NCCNC(=O)c1cncc(O)c1 [182_828 1]

IC50 (MMP-2; [3]): 188 µM | IC50 (MMP-9; [4]): 233 µM
Structure (SMILES): O=C(Cn1cnc2c(oc3ccccc32)c1=O)NCCCCCCCCNC(=O)c1cncc(O)c1 [182_828 4]

IC50 (MMP-2; [3]): 43 µM | IC50 (MMP-9; [4]): 99.6 µM
Structure (SMILES): O=C(Cn1cnc2c(oc3ccccc32)c1=O)NCCOCCOCCNC(=O)c1cncc(O)c1 [182_828 10]

IC50 (MMP-2; [3]): 50.3 µM | IC50 (MMP-9; [4]): 45.9 µM
Structure (SMILES): O=C(/C=C/CCCCNC(=O)c1cncc(O)c1)CC(=O)NCCNC(=O)Cn1cnc2c(oc3ccccc32)c1=O [182_828 12]

IC50 (MMP-2; [3]): 33.3 µM | IC50 (MMP-9; [4]): 35.3 µM
Structure (SMILES): O=C(CSCCNC(=O)c1cncc(O)c1)NCCNC(=O)Cn1cnc2c(oc3ccccc32)c1=O [182_828 24]

remaining activity (%) (MMP-2; concentration 0.0156 µM): 96.66 | remaining activity (%) (MMP-2; concentration 0.08 µM): 98.78 | remaining activity (%) (MMP-2; concentration 0.39 µM): 101.13 | remaining activity (%) (MMP-2; concentration 1.95 µM): 92.82 | remaining activity (%) (MMP-2; concentration 9.75 µM): 86.30 | remaining activity (%) (MMP-2; concentration 48.76 µM): 75.55 | remaining activity (%) (MMP-2; concentration 243.80 µM): 47.37 | remaining activity (%) (MMP-2; concentration 1219.00 µM): 8.68 | IC50 (MMP-2; [1]): 204 ± 37.3 µM | remaining enzyme activity (% of control) (MMP-9; concentration 0.08 µM): 91.27 | remaining enzyme activity (% of control) (MMP-9; concentration 0.39 µM): 99.91 | remaining enzyme activity (% of control) (MMP-9; concentration 1.95 µM): 99.61 | remaining enzyme activity (% of control) (MMP-9; concentration 9.75 µM): 100.27 | remaining enzyme activity (% of control) (MMP-9; concentration 48.76 µM): 85.00 | remaining enzyme activity (% of control) (MMP-9; concentration 243.80 µM): 58.59 | remaining enzyme activity (% of control) (MMP-9; concentration 1219.00 µM): 5.52 | IC50 (MMP-9; [2]): 312 ± 67.1 µM
Structure (SMILES): Cc1cc(=O)[nH]c(-n2nc(C)c(CCC(=O)NCc3c[nH]nn3)c2C)n1 [693+787 Linker 1]

— PMC10023787, “Trio-pharmacophore DNA-encoded chemical library for simultaneous selection of fragments and linkers” (Nature Communications, 2023)
